Results on 27 compounds are retold here after patent US20050197350A1, “Novel quinoline, tetrahydroquinazoline, and pyrimidine derivatives and methods of treatment related to the use thereof” (TAISHO PHARMACEUTICAL CO., LTD., priority 2003, published 2005).

The test system of this experiment is MCH receptors. In words: MCH receptor activity class (method not given).

Molecules are shown by their SMILES.

`Cc1ccc(C(=O)N[C@H]2CC[C@@H](Nc3cc(C)c4ccccc4n3)CC2)cc1` [Example 2544, 4-methyl-N-{cis-4-[(4-methylquinolin-2-yl)amino]cyclohexyl}benzamide] displayed a class of 1.

As to `Cc1cc(N[C@H]2CC[C@@H](NC(=O)c3ccc(F)cc3)CC2)nc2ccccc12` [Example 2545, 4-fluoro-N-{cis-4-[(4-methylquinolin-2-yl)amino]cyclohexyl}benzamide], the class stood at 1. Take `Cc1cc(N[C@H]2CC[C@@H](NC(=O)c3cccc(C(F)(F)F)c3)CC2)nc2ccccc12` [Example 2546, N-{cis-4-[(4-methylquinolin-2-yl)amino]cyclohexyl}-3-(trifluoromethyl)benzamide]: the class was 3. Compound `Cc1cc(N[C@H]2CC[C@@H](NC(=O)c3cccc(Cl)c3)CC2)nc2ccccc12` [Example 2547, 3-chloro-N-{cis-4-[(4-methylquinolin-2-yl)amino]cyclohexyl}benzamide] showed a class of 1. For `Cc1cc(N[C@H]2CC[C@@H](NC(=O)c3cc(C(F)(F)F)cc(C(F)(F)F)c3)CC2)nc2ccccc12` [Example 2548, N-{cis-4-[(4-methylquinolin-2-yl)amino]cyclohexyl}-3,5-bis(trifluoromethyl)benzamide], the class is listed as 1. In the case of `COc1cccc(C(=O)N[C@H]2CC[C@@H](Nc3cc(C)c4ccccc4n3)CC2)c1` [Example 2549, 3-methoxy-N-{cis-4-[(4-methylquinolin-2-yl)amino]cyclohexyl}benzamide], the class was determined as 1. Consider `Cc1cc(N[C@H]2CC[C@@H](NC(=O)c3cccc(C#N)c3)CC2)nc2ccccc12` [Example 2550, 3-cyano-N-{cis-4-[(4-methylquinolin-2-yl)amino]cyclohexyl}benzamide], for which the class is 1.

Compound `Cc1cc(N[C@H]2CC[C@@H](NC(=O)COc3ccc(Cl)cc3)CC2)nc2ccccc12` [Example 2551, 2-(4-chlorophenoxy)-N-{cis-4-[(4-methylquinolin-2-yl)amino]cyclohexyl}acetamide] returned a class of 1. Take `COc1cc(C(=O)N[C@H]2CC[C@@H](Nc3cc(C)c4ccccc4n3)CC2)cc(OC)c1OC` [Example 2552, 3,4,5-trimethoxy-N-{cis-4-[(4-methylquinolin-2-yl)amino]cyclohexyl}benzamide]: the class came to 1. Compound `COc1cc(OC)cc(C(=O)N[C@H]2CC[C@@H](Nc3cc(C)c4ccccc4n3)CC2)c1` [Example 2553, 3,5-dimethoxy-N-{cis-4-[(4-methylquinolin-2-yl)amino]cyclohexyl}benzamide] yielded a class of 1. In the case of `COc1cccc(OCC(=O)N[C@H]2CC[C@@H](Nc3cc(C)c4ccccc4n3)CC2)c1` [Example 2554, 2-(3-methoxyphenoxy)-N-{cis-4-[(4-methylquinolin-2-yl)amino]cyclohexyl}acetamide] it was 1; in that of `Cc1cc(N[C@H]2CC[C@@H](NC(=O)[C@H](O)c3cccc(Cl)c3)CC2)nc2ccccc12` [Example 2555, (2R)-2-(3-chlorophenyl)-2-hydroxy-N-{cis-4-[(4-methylquinolin-2-yl)amino]cyclohexyl}acetamide], 1. On to `Cc1cccc(OCC(=O)N[C@H]2CC[C@@H](Nc3cc(C)c4ccccc4n3)CC2)c1` [Example 2556, 2-(3-methylphenoxy)-N-{cis-4-[(4-methylquinolin-2-yl)amino]cyclohexyl}acetamide], for which the class is on record as 1.

Take `Cc1cc(N[C@H]2CC[C@@H](NC(=O)c3ccc(Br)o3)CC2)nc2ccccc12` [Example 2557, 5-bromo-N-{cis-4-[(4-methylquinolin-2-yl)amino]cyclohexyl}-2-furamide]: the class is recorded as 1. `Cc1cc(N[C@H]2CC[C@@H](NC(=O)Nc3ccc(OCc4ccccc4)cc3)CC2)nc2ccccc12` [Example 2558, N-[4-(benzyloxy)phenyl]-N′-{cis-4-[(4-methylquinolin-2-yl)amino]cyclohexyl}urea] displayed a class of 2. To `Cc1cc(N[C@H]2CC[C@@H](NC(=O)Nc3ccc(Oc4ccccc4)cc3)CC2)nc2ccccc12` [Example 2559, N-{cis-4-[(4-methylquinolin-2-yl)amino]cyclohexyl}-N′-(4-phenoxyphenyl)urea] belongs 1; to `Cc1cc(N[C@H]2CC[C@@H](NC(=O)Nc3cccc(Oc4ccccc4)c3)CC2)nc2ccccc12` [Example 2560, N-{cis-4-[(4-methylquinolin-2-yl)amino]cyclohexyl}-N′-(3-phenoxyphenyl)urea], 2; to `Cc1cc(N[C@H]2CC[C@@H](NC(=O)Nc3ccccc3Oc3ccccc3)CC2)nc2ccccc12` [Example 2561, N-{cis-4-[(4-methylquinolin-2-yl)amino]cyclohexyl}-N′-(2-phenoxyphenyl)urea], 1. In the case of `Cc1cccc(C(=O)N[C@H]2CC[C@@H](Nc3ncc(C)c(N(C)C)n3)CC2)c1` [Example 2562, N-(cis-4-{[4-(dimethylamino)-5-methylpyrimidin-2-yl]amino}cyclohexyl)-3-methylbenzamide] it was 1; in that of `COc1cccc(C(=O)N[C@H]2CC[C@@H](Nc3ncc(C)c(N(C)C)n3)CC2)c1` [Example 2563, N-(cis-4-{[4-(dimethylamino)-5-methylpyrimidin-2-yl]amino}cyclohexyl)-3-methoxybenzamide], 1; in that of `COc1cccc(C(=O)N[C@H]2CC[C@@H](Nc3nc(C)cc(N(C)C)n3)CC2)c1` [Example 2564, N-(cis-4-{[4-(dimethylamino)-6-methylpyrimidin-2-yl]amino}cyclohexyl)-3-methoxybenzamide], 1. `Cc1ccc(C(=O)N[C@H]2CC[C@@H](Nc3nc(C)cc(N(C)C)n3)CC2)cc1` [Example 2565, N-(cis-4-{[4-(dimethylamino)-6-methylpyrimidin-2-yl]amino}cyclohexyl)-4-methylbenzamide] yielded a class of 1. To `Cc1cc(N(C)C)nc(N[C@H]2CC[C@@H](NC(=O)c3ccc(Cl)cc3)CC2)n1` [Example 2566, 4-chloro-N-(cis-4-{[4-(dimethylamino)-6-methylpyrimidin-2-yl]amino}cyclohexyl)benzamide] belongs 1. Regarding `Cc1cc(N(C)C)nc(N[C@H]2CC[C@@H](NC(=O)c3cccc(Cl)c3)CC2)n1` [Example 2567, 3-chloro-N-(cis-4-{[4-(dimethylamino)-6-methylpyrimidin-2-yl]amino}cyclohexyl)benzamide], the class was found to be 1.

On to `Cc1cc(N(C)C)nc(N[C@H]2CC[C@@H](NC(=O)c3ccc(F)c(F)c3)CC2)n1` [Example 2568, N-(cis-4-{[4-(dimethylamino)-6-methylpyrimidin-2-yl]amino}cyclohexyl)-3,4-difluorobenzamide], for which the class is 1. In turn, `Cc1cc(N(C)C)nc(N[C@H]2CC[C@@H](NC(=O)c3ccc(OC(F)(F)F)cc3)CC2)n1` [Example 2569, N-(cis-4-{[4-(dimethylamino)-6-methylpyrimidin-2-yl]amino}cyclohexyl)-4-(trifluoromethoxy)benzamide] had a class of 3. Compound `Cc1cc(N(C)C)nc(N[C@H]2CC[C@@H](NC(=O)c3ccc(F)cc3)CC2)n1` [Example 2570, N-(cis-4-{[4-(dimethylamino)-6-methylpyrimidin-2-yl]amino}cyclohexyl)-4-fluorobenzamide] gave a class of 1.
